Laboratory results: US11440913B2, “Aminoimidazopyridazines as kinase inhibitors” (BRISTOL-MYERS SQUIBB COMPANY, priority 2017, dated 2022)

Columns and labels:
[1] = biological target: His-GST-TVMV-hRIPK1(1-324) (Homo sapiens (Human), UniProt Q13546); test: RIPK1 HTRF Binding Assay; conditions: HTRF binding, 1 h at rt; read-out: RIPK1 (IC50)
In short: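 HTRF probe-displacement binding: 1 nM His-GST-TVMV-hRIPK1(1-324) (baculovirus construct), 90.6 nM probe, 0.2 nM anti-GST-Tb in 20 mM HEPES, 10 mM MgCl2, 0.015% Brij-35, 4 mM DTT, 0.05 mg/mL BSA. Incubated 1 h at rt; FRET 520/495 nm ratio, inhibition relative to DMSO-only wells.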

[2] = tested on: MLKL phosphorylation in HT29-L23 human colorectal adenocarcinoma cells; test: MLKL Phosphorylation High-Content Assay; format: cell-based; conditions: Homo sapiens, 6 h, necroptosis induced with TNFα, SMAC mimetic and Z-VAD, read-out: pMLKL (IC50)
In short: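 HT29-L23 cells pretreated 30 min at 37 °C with compound (6.25 to 0.106 μM final), then necroptosis induced with TNFα 35 ng/mL, SMAC mimetic 700 nM and Z-VAD 140 nM for 6 h. Fixed cells immunostained for MLKL pS358 and imaged; IC50 and Ymax from 4-parameter logistic fit.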

His-GST-TVMV-hRIPK1(1-324), sequence (Q13546 1-324): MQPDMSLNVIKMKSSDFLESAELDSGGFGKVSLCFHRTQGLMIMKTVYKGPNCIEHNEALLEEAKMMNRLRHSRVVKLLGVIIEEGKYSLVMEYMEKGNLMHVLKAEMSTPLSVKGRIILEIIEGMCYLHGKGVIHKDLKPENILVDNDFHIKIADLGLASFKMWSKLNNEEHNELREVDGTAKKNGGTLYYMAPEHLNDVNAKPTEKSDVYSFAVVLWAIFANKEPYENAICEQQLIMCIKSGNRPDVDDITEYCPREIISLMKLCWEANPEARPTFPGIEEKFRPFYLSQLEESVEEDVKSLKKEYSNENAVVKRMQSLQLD

Structure (SMILES): CC(=O)Nc1cn2nc(-c3cnc(C)c(C(=O)Nc4cnn(C(C)c5ccc(F)cc5)c4)c3)ccc2n1 (stereo not drawn) [Example 348, 5-{2-acetamidoimidazo[1,2-b]pyridazin-6-yl}-N-{1-[1-(4-fluorophenyl)ethyl]-1H-pyrazol-4-yl}-2-methylpyridine-3-carboxamide]
- IC50 [1]: 0.002 µM
- IC50 [2]: 0.027 µM

Structure (SMILES): CC(=O)Nc1cn2nc(-c3cnc(C)c(C(=O)Nc4cn(Cc5ccc(Cl)cc5)cn4)c3)ccc2n1 [Example 349, N-{1-[(4-chlorophenyl)methyl]-1H-imidazol-4-yl}-5-{2-acetamidoimidazo[1,2-b]pyridazin-6-yl}-2-methylpyridine-3-carboxamide]
- IC50 [1]: 0.051 µM
- IC50 [2]: 0.424 µM

Structure (SMILES): CC(=O)Nc1cn2nc(-c3cnc(C)c(C(=O)Nc4cn(Cc5ccc(F)cc5)cn4)c3)ccc2n1 [Example 350, 5-{2-acetamidoimidazo[1,2-b]pyridazin-6-yl}-N-{1-[(4-fluorophenyl)methyl]-1H-imidazol-4-yl}-2-methylpyridine-3-carboxamide]
- IC50 [1]: 0.027 µM
- IC50 [2]: 0.169 µM

Structure (SMILES): CC(=O)Nc1cn2nc(-c3cnc(C)c(C(=O)Nc4cn(Cc5ccccc5)cn4)c3)ccc2n1 [Example 351, N-(1-benzyl-1H-imidazol-4-yl)-5-{2-acetamidoimidazo [1,2-b]pyridazin-6-yl}-2-methylpyridine-3-carboxamide]
- IC50 [1]: 0.028 µM
- IC50 [2]: 0.049 µM

Structure (SMILES): CC(=O)Nc1cn2nc(-c3cnc(C)c(C(=O)NCc4cc(-c5cnn(C)c5)ccc4F)c3)ccc2n1 [Example 352, 5-{2-acetamidoimidazo[1,2-b]pyridazin-6-yl}-N-{[2-fluoro-5-(1-methyl-1H-pyrazol-4-yl)phenyl]methyl}-2-methylpyridine-3-carboxamide]
- IC50 [1]: 0.125 µM
- IC50 [2]: 0.394 µM

Structure (SMILES): CC(=O)Nc1cn2nc(-c3cnc(C)c(C(=O)NCC(C)(O)Cc4ccc(F)cc4)c3)ccc2n1 (stereo not drawn) [Example 356, 5-{2-acetamidoimidazo[1,2-b]pyridazin-6-yl}-N-[3-(4-fluorophenyl)-2-hydroxy-2-methylpropyl]-2-methylpyridine-3-carboxamide]
- IC50 [1]: 0.15 µM
- IC50 [2]: 0.485 µM

Structure (SMILES): CC(=O)Nc1cn2nc(-c3cnc(C)c(C(=O)N4CCCC(O)(Cc5ccc(F)cc5)C4)c3)ccc2n1 (stereo not drawn) [Example 357, N-[6-(5-{3-[(4-fluorophenyl)methyl]-3-hydroxypiperidine-1-carbonyl}-6-methylpyridin-3-yl)imidazo[1,2-b]pyridazin-2-yl] acetamide]
- IC50 [1]: 0.335 µM
- IC50 [2]: 0.219 µM

Structure (SMILES): CC(=O)Nc1cn2nc(-c3cc(F)c(C)c(C(=O)NCc4cc(OC(F)(F)F)ccc4F)c3)ccc2n1 [Example 359, 5-{2-acetamidoimidazo [1,2-b]pyridazin-6-yl}-3-fluoro-N-{[2-fluoro-5-(trifluoromethoxy)phenyl]methyl}-2-methylbenzamide]
- IC50 [1]: 0.078 µM
- IC50 [2]: 0.005 µM

Structure (SMILES): CC(=O)Nc1cn2nc(-c3cc(F)c(C)c(C(=O)N[C@@H](C)c4cc(OC(F)(F)F)ccc4F)c3)ccc2n1 [Example 360, 5-{2-acetamidoimidazo [1,2-b]pyridazin-6-yl}-3-fluoro-N-[(1S)-1-[2-fluoro-5-(trifluoromethoxy)phenyl]ethyl]-2-methylbenzamide]
- IC50 [1]: 0.006 µM
- IC50 [2]: 0.009 µM

Structure (SMILES): CC(=O)Nc1cn2nc(-c3cc(F)c(C)c(C(=O)NCc4cccc(OC(F)(F)F)c4F)c3)ccc2n1 [Example 361, 5-{2-acetamidoimidazo [1,2-b]pyridazin-6-yl}-3-fluoro-N-{[2-fluoro-3-(trifluoromethoxy)phenyl]methyl}-2-methylbenzamide]
- IC50 [1]: 0.042 µM
- IC50 [2]: 0.135 µM

Structure (SMILES): Cc1c(F)cc(-c2ccc3nc(NC(=O)CN(C)C)cn3n2)cc1C(=O)NCC[C@H](O)c1ccc(Cl)cc1 [Example 362, N-[(3S)-3-(4-chlorophenyl)-3-hydroxypropyl]-5-{2-[2-(dimethylamino)acetamido]imidazo[1,2-b]pyridazin-6-yl}-3-fluoro-2-methylbenzamide]
- IC50 [1]: 0.006 µM
- IC50 [2]: 0.005 µM

Structure (SMILES): CNCC(=O)Nc1cn2nc(-c3cc(F)c(C)c(C(=O)NCC[C@H](O)c4ccc(Cl)cc4)c3)ccc2n1 [Example 363, N-[(3S)-3-(4-chlorophenyl)-3-hydroxypropyl]-3-fluoro-2-methyl-5-{2-[2-(methylamino)acetamido]imidazo[1,2-b]pyridazin-6-yl}benzamide]
- IC50 [1]: 0.065 µM
- IC50 [2]: 0.047 µM

Structure (SMILES): CC(=O)Nc1cn2nc(-c3cc(F)c(C)c(C(=O)NCc4ccccc4Oc4ccccc4)c3)ccc2n1 [Example 364, 5-{2-acetamidoimidazo [1,2-b]pyridazin-6-yl}-3-fluoro-2-methyl-N-[(2-phenoxyphenyl)methyl] benzamide]
- IC50 [1]: 0.007 µM
- IC50 [2]: 0.007 µM

Structure (SMILES): CC(=O)Nc1cn2nc(-c3cc(F)c(C)c(C(=O)NCc4c(F)cccc4C(=O)N4CCC(F)(F)C4)c3)ccc2n1 [Example 365, N-{[2-(3,3-difluoropyrrolidine-1-carbonyl)-6-fluorophenyl]methyl}-5-{2-acetamidoimidazo [1,2-b]pyridazin-6-yl}-3-fluoro-2-methylbenzamide]
- IC50 [1]: 0.037 µM
- IC50 [2]: 0.116 µM

Structure (SMILES): CC(=O)Nc1cn2nc(-c3cc(F)c(F)c(C(=O)NCc4cc(OC(F)(F)F)ccc4F)c3)ccc2n1 [Example 366, 5-{2-acetamidoimidazo [1,2-b]pyridazin-6-yl}-2,3-difluoro-N-{[2-fluoro-5-(trifluoromethoxy)phenyl]methyl} benzamide]
- IC50 [1]: 0.013 µM
- IC50 [2]: 0.123 µM

Structure (SMILES): CC(=O)Nc1cn2nc(-c3cc(F)c(F)c(C(=O)N[C@H](C)c4cc(OC(F)(F)F)ccc4F)c3)ccc2n1 [Example 367, 5-{2-acetamidoimidazo [1,2-b]pyridazin-6-yl}-2,3-difluoro-N-[(1R)-1-[2-fluoro-5-(trifluoromethoxy)phenyl]ethyl] benzamide]
- IC50 [1]: 0.056 µM
- IC50 [2]: 0.194 µM

Structure (SMILES): CC(=O)Nc1cn2nc(-c3c(F)c(F)cc(C(=O)NCc4cc(OC(F)(F)F)ccc4F)c3F)ccc2n1 [Example 368, 3-{2-acetamidoimidazo [1,2-b]pyridazin-6-yl}-2,4,5-trifluoro-N-{[2-fluoro-5-(trifluoromethoxy)phenyl]methyl} benzamide]
- IC50 [1]: 0.025 µM
- IC50 [2]: 0.031 µM

Structure (SMILES): CC(=O)Nc1cn2nc(-c3cc(F)cc(C(=O)NCC[C@@H](O)c4ccc(Cl)cc4)c3)ccc2n1 [Example 370, N-[(3R)-3-(4-chlorophenyl)-3-hydroxypropyl]-3-{2-acetamidoimidazo [1,2-b]pyridazin-6-yl}-5-fluorobenzamide]
- IC50 [1]: 0.034 µM
- IC50 [2]: 0.21 µM

Structure (SMILES): COc1c(F)cc(-c2ccc3nc(NC(C)=O)cn3n2)cc1C(=O)NCc1cc(OC(F)(F)F)ccc1F [Example 371, 5-{2-acetamidoimidazo [1,2-b]pyridazin-6-yl}-3-fluoro-N-{[2-fluoro-5-(trifluoromethoxy)phenyl]methyl}-2-methoxybenzamide]
- IC50 [1]: 0.005 µM
- IC50 [2]: 0.015 µM

Structure (SMILES): CC(=O)Nc1cn2nc(-c3cc(C(=O)NCc4cc(C(F)(F)F)ccc4F)cc(F)c3C)ccc2n1 [Example 372, 3-{2-acetamidoimidazo [1,2-b]pyridazin-6-yl}-5-fluoro-N-{[2-fluoro-5-(trifluoromethyl)phenyl]methyl}-4-methylbenzamide]
- IC50 [1]: 0.013 µM
- IC50 [2]: 0.122 µM

Structure (SMILES): CC(=O)Nc1cn2nc(-c3cc(C(=O)NCC[C@@H](O)c4ccc(Cl)cc4)cc(F)c3C)ccc2n1 [Example 373, N-[(3R)-3-(4-chlorophenyl)-3-hydroxypropyl]-3-{2-acetamidoimidazo [1,2-b]pyridazin-6-yl}-5-fluoro-4-methylbenzamide]
- IC50 [1]: 0.011 µM
- IC50 [2]: 0.051 µM

Structure (SMILES): COc1ccc(-c2ccc3nc(NC(C)=O)cn3n2)c(F)c1C(=O)N[C@@H](C)c1cc(OC(F)(F)F)ccc1F [Example 375, 3-{2-acetamidoimidazo [1,2-b]pyridazin-6-yl}-2-fluoro-N-[(1S)-1[2-fluoro-5-(trifluoromethoxy)phenyl]ethyl]-6-methoxybenzamide]
- IC50 [1]: 0.012 µM
- IC50 [2]: 0.003 µM

Structure (SMILES): COc1ccc(-c2ccc3nc(NC(C)=O)cn3n2)c(F)c1C(=O)NCc1cc(F)ccc1C(=O)N1CCC(F)(F)C1 [Example 376]
- IC50 [1]: 0.009 µM
- IC50 [2]: 0.009 µM

Structure (SMILES): COc1ccc(-c2ccc3nc(NC(C)=O)cn3n2)c(F)c1C(=O)NCc1ccccc1OCC1CC1 [Example 377, N-{[2-(cyclopropylmethoxy)phenyl]methyl}-3-{2-acetamidoimidazo [1,2-b]pyridazin-6-yl}-2-fluoro-6-methoxybenzamide]
- IC50 [1]: 0.067 µM
- IC50 [2]: 0.135 µM

Structure (SMILES): [2H]C([2H])([2H])[C@@H](NC(=O)c1c(OC)ccc(-c2ccc3nc(NC(C)=O)cn3n2)c1F)c1cc(OC(F)(F)F)ccc1F [Example 378, 3-{2-acetamidoimidazo [1,2-b]pyridazin-6-yl}-2-fluoro-N-[(1R)-1-[2-fluoro-5-(trifluoromethoxy)phenyl](2,2,2-Â^2Hâ,f)ethyl]-6-methoxybenzamide]
- IC50 [1]: 0.006 µM
- IC50 [2]: 0.001 µM

Structure (SMILES): CC(=O)Nc1cn2nc(-c3ccc(F)c(C(=O)N[C@@H](C)c4cc(OC(F)(F)F)ccc4F)c3F)ccc2n1 [Example 379, 3-{2-acetamidoimidazo [1,2-b]pyridazin-6-yl}-2,6-difluoro-N-[(1S)-1-[2-fluoro-5-(trifluoromethoxy)phenyl]ethyl] benzamide]
- IC50 [1]: 0.001 µM
- IC50 [2]: 0.005 µM

Structure (SMILES): [2H]C([2H])([2H])[C@@H](NC(=O)c1c(F)ccc(-c2ccc3nc(NC(C)=O)cn3n2)c1F)c1cc(OC(F)(F)F)ccc1F [Example 380, 3-{2-acetamidoimidazo [1,2-b]pyridazin-6-yl}-2,6-difluoro-N-[(1R)-1-[2-fluoro-5-(trifluoromethoxy)phenyl](2,2,2-Â^2Hâ,f)ethyl} benzamide]
- IC50 [1]: 0.003 µM
- IC50 [2]: 0.009 µM
